The NIST ThermoML archive (doi:10.1016/j.tca.2017.04.014)

Assay: molar heat capacity at constant pressure; xn = mol fraction of the nth substance listed
Details: 101.3 kPa, Crystal, DSC

[O-2].[O-2].[Th+4] [thorium dioxide] + [O-2].[O-2].[U+4]
molar heat capacity at constant pressure [J/K/mol]
Details | x1 = 0.3 | x1 = 0.5 | x1 = 0.6 | x1 = 0.7 | x1 = 0.8 | x1 = 0.9 | x1 = 1
300 K | 73.2 | 70.4 | 67.7 | 66.6 | 66.7 | 65.1 | 62.1
310 K | 73.7 | 71.8 | 69.3 | 67.6 | 67.3 | 66.4 | 61.8
320 K | 75.6 | 72.6 | 70.2 | 68.6 | 67.9 | 67.5 | 62.8
330 K | 75.9 | 73.8 | 71 | 69.3 | 69.1 | 68 | 63.5
340 K | 76.7 | 75.1 | 71.9 | 69.9 | 69.7 | 69 | 64.2
350 K | 78 | 76.1 | 72.6 | 70.4 | 70.8 | 70.1 | 65.1
360 K | 78.6 | 76.8 | 73.3 | 70.8 | 72.1 | 71.7 | 65.6
370 K | 78.9 | 77 | 74.5 | 71.4 | 72.3 | 71.7 | 65.9
380 K | 79.8 | 77.5 | 75.1 | 72 | 72.3 | 72 | 66.8
390 K | 80.2 | 79 | 75.8 | 72.9 | 74.1 | 73 | 67.3
400 K | 80.8 | 79.3 | 76.4 | 73.9 | 74.8 | 73.8 | 67.7
410 K | 81.3 | 79.6 | 76.8 | 73.8 | 74.8 | 74.4 | 68
420 K | 81.5 | 80.3 | 77.3 | 75.1 | 75.4 | 74.1 | 68.4
430 K | 82.1 | 81.2 | 77.5 | 75.5 | 75.9 | 74.4 | 68.6
440 K | 82.3 | 81.2 | 77.9 | 75.8 | 76.4 | 74.9 | 68.9
450 K | 83.3 | 82.1 | 78.6 | 75.7 | 76.9 | 76 | 69.6
460 K | 83.7 | 82.2 | 79.4 | 75.8 | 77.2 | 76.2 | 69.8
470 K | 83.9 | 82.8 | 79.5 | 76.2 | 77.5 | 76.7 | 70.1
480 K | 84 | 83.5 | 80.2 | 76.6 | 77.3 | 77 | 70.2
490 K | 84.5 | 83 | 80 | 77.9 | 78 | 77 | 70.5
500 K | 84.9 | 83.8 | 80.7 | 78.1 | 78.8 | 77 | 70.7
510 K | 85.5 | 84.1 | 80.7 | 77.9 | 78.6 | 78.3 | 70.9
520 K | 85.3 | 84.8 | 81 | 78.3 | 79 | 78.6 | 71.2
530 K | 85.5 | 84.5 | 81 | 78.4 | 79.6 | 78.6 | 71.4
540 K | 86.4 | 85 | 81.5 | 78.9 | 79.7 | 78.9 | 71.7
550 K | 86.6 | 85.1 | 82.9 | 79.6 | 80 | 78.9 | 71.9
560 K | 86.7 | 85.8 | 82.8 | 79.8 | 80.2 | 79.1 | 72
570 K | 86.7 | 86.2 | 82.8 | 80.3 | 80.1 | 79.7 | 72.1
580 K | 87.1 | 85.6 | 83.4 | 80.5 | 80.2 | 79.7 | 72.3
590 K | 87.4 | 86.7 | 83.4 | 80.6 | 80.5 | 79.7 | 72.5
600 K | 88 | 87 | 83.7 | 80.6 | 80.6 | 79.7 | 72.5
610 K | 87.5 | 86.6 | 84.4 | 80.6 | 80.6 | 79.7 | 72.5
620 K | 88 | 86.9 | 84.8 | 81.2 | 80.6 | 79.9 | 73
630 K | 88.5 | 87.5 | 84.2 | 81.4 | 81.1 | 80.2 | 73
640 K | 88.7 | 87.2 | 85.1 | 81.5 | 81.1 | 80.5 | 73.3
650 K | 88.9 | 87.3 | 85.1 | 82 | 80.9 | 80.7 | 73.6
660 K | 89 | 87.6 | 84.9 | 81.8 | 81.6 | 79.7 | 73.5
670 K | 88.9 | 88.3 | 85.8 | 82.3 | 81.9 | 79.7 | 73.6
680 K | 89.4 | 88.2 | 86.4 | 82.4 | 81.5 | 79.7 | 73.6
690 K | 90.2 | 88.2 | 86.4 | 82.4 | 81.6 | 79.9 | 73.4
700 K | 90.4 | 88.6 | 86.4 | 83.3 | 81.7 | 80.2 | 73.8
710 K | 91.2 | 89.5 | 86.4 | 83.3 | 82.2 | 80.5 | 74.5
720 K | 91.9 | 89.2 | 86.7 | 83.3 | 82.4 | 80.7 | 74.5
730 K | 92.2 | 90.1 | 87.3 | 83.3 | 82.7 | 81.2 | 74.6
739 K | – | – | – | – | – | – | 74.7
740 K | 92.9 | 90.4 | 87.7 | 83.3 | 82.7 | 81.4 | –
750 K | 93.1 | 91 | 87.8 | 83.6 | 82.7 | 81.3 | 74.6
760 K | 93.5 | 91 | 89.1 | 83.9 | 82.9 | 81.5 | 75
770 K | 94 | 91.7 | 89.1 | 84.3 | 82.8 | 81.5 | 75.3
780 K | 94.2 | 91.8 | 89.1 | 84.5 | 83.1 | 81 | 75.3
790 K | 94.3 | 92.3 | 89.1 | 84.9 | 83 | 81.8 | 75.3
800 K | 94.4 | 92.3 | 89.1 | 84.9 | 83.3 | 81.3 | 75.7
810 K | 95 | 92.7 | 89.8 | 85.3 | 83.1 | 82.3 | 75.7
820 K | 95.3 | 92 | 90.2 | 85.7 | 83.2 | 82.3 | 75.7
830 K | 95.6 | 92.8 | 89.5 | 86 | 83.3 | 82.3 | 75.9
840 K | 96 | 92.9 | 90.3 | 86 | 83.5 | 82.3 | 76
850 K | 96.1 | 93.2 | 90.7 | 86 | 83.6 | 82.3 | 76.1
860 K | 96.1 | 93.4 | 90.7 | 86 | 83.7 | 83.4 | 76.4
870 K | 96.3 | 93.8 | 90.8 | 86.4 | 84 | 83.9 | 76.1
